Experimental data from publication doi:10.1101/2021.04.08.439011v1 (biorxiv, 2021).

Tests used:
VRK2 = VRK2 (Homo sapiens, UniProt Q86Y07); settings: 1 µM; binder
STK36 = STK36 (Homo sapiens, UniProt Q9NRP7); settings: 1 µM; binder
CSNK1G2 = CSNK1G2 (Homo sapiens, UniProt P78368); settings: 1 µM; binder
SRMS = SRMS (Homo sapiens, UniProt Q9H3Y6); settings: 1 µM; binder
PIM3 = PIM3 (Homo sapiens, UniProt Q86V86); settings: 1 µM; binder
CDK3 = CDK3 (Homo sapiens, UniProt Q00526); settings: 1 µM; binder
RPS6KA5 = RPS6KA5 (Homo sapiens, UniProt O75582); settings: Kin.Dom.1 N-terminal; binder
ACVR2B = ACVR2B (Homo sapiens, UniProt Q13705); settings: 1 µM; binder
IRAK3 = IRAK3 (Homo sapiens, UniProt Q9Y616); settings: 1 µM; binder
SGK3 = SGK3 (Homo sapiens, UniProt Q96BR1); settings: 1 µM; binder
PRP4 = PRP4 (Homo sapiens, UniProt Q13523); settings: 1 µM; binder
TLK2 = TLK2 (Homo sapiens, UniProt Q86UE8); settings: 1 µM; binder
MTOR = MTOR (Homo sapiens, UniProt P42345); settings: 1 µM; binder
TGFBR2 = TGFBR2 (Homo sapiens, UniProt P37173); settings: 1 µM; binder
PRKG2 = PRKG2 (Homo sapiens, UniProt Q13237); settings: 1 µM; binder
PAK3 = PAK3 (Homo sapiens, UniProt O75914); settings: 1 µM; binder
ABL1(Y253F) = ABL1(Y253F) (Homo sapiens, UniProt P00519, Y253F); settings: phosphorylated; 1 µM; binder
SRPK3 = SRPK3 (Homo sapiens, UniProt Q9UPE1); settings: 1 µM; binder
SBK1 = SBK1 (Homo sapiens, UniProt Q52WX2); settings: 1 µM; binder
PIP5K1C = PIP5K1C (Homo sapiens, UniProt O60331); settings: 1 µM; binder
CDK19 = CDK19 (Homo sapiens, UniProt Q9BWU1); settings: 1 µM; binder
GCN2(Kin.Dom.2,S808G) = GCN2(Kin.Dom.2,S808G) (Homo sapiens, UniProt Q9P2K8, S808G); settings: 1 µM; binder
SgK110 = SgK110 (Homo sapiens, UniProt P0C264); settings: 1 µM; binder
NEK7 = NEK7 (Homo sapiens, UniProt Q8TDX7); settings: 1 µM; binder
FGR = FGR (Homo sapiens, UniProt P09769); settings: 1 µM; binder
ABL1(M351T) = ABL1(M351T) (Homo sapiens, UniProt P00519, M351T); settings: phosphorylated; 1 µM; binder
ADCK4 = ADCK4 (Homo sapiens, UniProt Q96D53); settings: 1 µM; binder
PKN1 = PKN1 (Homo sapiens, UniProt Q16512); settings: 1 µM; binder
PLK1 = PLK1 (Homo sapiens, UniProt P53350); settings: 1 µM; binder
SIK1 = SIK1 (Homo sapiens, UniProt P57059); settings: 1 µM; binder

Chain of PKN1 (Q16512 whole entry): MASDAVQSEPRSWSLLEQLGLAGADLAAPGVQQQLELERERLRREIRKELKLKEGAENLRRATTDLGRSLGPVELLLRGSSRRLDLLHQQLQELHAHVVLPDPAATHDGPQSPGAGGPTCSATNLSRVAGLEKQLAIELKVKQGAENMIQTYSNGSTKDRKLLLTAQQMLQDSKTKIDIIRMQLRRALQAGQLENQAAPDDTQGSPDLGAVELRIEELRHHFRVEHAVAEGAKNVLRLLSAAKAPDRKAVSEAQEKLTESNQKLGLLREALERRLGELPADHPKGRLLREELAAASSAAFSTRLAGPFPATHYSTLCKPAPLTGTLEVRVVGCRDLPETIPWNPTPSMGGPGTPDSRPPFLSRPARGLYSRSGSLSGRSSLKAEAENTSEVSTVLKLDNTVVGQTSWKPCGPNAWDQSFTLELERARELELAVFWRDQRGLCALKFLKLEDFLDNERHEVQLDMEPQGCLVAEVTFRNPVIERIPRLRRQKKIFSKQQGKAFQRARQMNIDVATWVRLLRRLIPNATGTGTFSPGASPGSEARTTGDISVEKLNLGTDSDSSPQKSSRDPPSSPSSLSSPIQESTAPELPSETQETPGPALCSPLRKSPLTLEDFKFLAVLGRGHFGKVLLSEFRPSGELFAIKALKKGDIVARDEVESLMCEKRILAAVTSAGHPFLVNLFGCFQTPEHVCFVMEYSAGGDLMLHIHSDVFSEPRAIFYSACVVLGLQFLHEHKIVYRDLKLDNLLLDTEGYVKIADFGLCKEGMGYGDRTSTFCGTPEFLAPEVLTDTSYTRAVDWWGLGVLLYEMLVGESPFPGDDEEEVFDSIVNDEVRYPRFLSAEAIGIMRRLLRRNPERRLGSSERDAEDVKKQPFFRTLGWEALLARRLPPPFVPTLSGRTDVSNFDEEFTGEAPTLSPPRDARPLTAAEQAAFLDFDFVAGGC
Chain of IRAK3 (Q9Y616 whole entry): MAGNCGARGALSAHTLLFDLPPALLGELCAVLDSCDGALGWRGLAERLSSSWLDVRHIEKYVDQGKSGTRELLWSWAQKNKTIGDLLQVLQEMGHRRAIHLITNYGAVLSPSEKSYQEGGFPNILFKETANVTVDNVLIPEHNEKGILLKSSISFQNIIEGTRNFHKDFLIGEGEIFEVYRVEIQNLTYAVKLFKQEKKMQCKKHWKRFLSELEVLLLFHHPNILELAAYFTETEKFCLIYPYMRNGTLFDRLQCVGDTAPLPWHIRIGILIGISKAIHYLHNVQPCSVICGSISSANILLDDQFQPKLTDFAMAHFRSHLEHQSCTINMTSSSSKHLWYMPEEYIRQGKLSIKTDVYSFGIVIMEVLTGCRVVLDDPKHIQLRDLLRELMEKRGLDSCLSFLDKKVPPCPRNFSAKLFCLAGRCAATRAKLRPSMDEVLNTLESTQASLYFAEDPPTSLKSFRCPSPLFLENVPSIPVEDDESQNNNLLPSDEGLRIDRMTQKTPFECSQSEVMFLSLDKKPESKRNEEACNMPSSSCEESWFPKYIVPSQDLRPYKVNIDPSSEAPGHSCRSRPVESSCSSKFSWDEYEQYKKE
Chain of GCN2(Kin.Dom.2,S808G) (Q9P2K8 whole entry S808G): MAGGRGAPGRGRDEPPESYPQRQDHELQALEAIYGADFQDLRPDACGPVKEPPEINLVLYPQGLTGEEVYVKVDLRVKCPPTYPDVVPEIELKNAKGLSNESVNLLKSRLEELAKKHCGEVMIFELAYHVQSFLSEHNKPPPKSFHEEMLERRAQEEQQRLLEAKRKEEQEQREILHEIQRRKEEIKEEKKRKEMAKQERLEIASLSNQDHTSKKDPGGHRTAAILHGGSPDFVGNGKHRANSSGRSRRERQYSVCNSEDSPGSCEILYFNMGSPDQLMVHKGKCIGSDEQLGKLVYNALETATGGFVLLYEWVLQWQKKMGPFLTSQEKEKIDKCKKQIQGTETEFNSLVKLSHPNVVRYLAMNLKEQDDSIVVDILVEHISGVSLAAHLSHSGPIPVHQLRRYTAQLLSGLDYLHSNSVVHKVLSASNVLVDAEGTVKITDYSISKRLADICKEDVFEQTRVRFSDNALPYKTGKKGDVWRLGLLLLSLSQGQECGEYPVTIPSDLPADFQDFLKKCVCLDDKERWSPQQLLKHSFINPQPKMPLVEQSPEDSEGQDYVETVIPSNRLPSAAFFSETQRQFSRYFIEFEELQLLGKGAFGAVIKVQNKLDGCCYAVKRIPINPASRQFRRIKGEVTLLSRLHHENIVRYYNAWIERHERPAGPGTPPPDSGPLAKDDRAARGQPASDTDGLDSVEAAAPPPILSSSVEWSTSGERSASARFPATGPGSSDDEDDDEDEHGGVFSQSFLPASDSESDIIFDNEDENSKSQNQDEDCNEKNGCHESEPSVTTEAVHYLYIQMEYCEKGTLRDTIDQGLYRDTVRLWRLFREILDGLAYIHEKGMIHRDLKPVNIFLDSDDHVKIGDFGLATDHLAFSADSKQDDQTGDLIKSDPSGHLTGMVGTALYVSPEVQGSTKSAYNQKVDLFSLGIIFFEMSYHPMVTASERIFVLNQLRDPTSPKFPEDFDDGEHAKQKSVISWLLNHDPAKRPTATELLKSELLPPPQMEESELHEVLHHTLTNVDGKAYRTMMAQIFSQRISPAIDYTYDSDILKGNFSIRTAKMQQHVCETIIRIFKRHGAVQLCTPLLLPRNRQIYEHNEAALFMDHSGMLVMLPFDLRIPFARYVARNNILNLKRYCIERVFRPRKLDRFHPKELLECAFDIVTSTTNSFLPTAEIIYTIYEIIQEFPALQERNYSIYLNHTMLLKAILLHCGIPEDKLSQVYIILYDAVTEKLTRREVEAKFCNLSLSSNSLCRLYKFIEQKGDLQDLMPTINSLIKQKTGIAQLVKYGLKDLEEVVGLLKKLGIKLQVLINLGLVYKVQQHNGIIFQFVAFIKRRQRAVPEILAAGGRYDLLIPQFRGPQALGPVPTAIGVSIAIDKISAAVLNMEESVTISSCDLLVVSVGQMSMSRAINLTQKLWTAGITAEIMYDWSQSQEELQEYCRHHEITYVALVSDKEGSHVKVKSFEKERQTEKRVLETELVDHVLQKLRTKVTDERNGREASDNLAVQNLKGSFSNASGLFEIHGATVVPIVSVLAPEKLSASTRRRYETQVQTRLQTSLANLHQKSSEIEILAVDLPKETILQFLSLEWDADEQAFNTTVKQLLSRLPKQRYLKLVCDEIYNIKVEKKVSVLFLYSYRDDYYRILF
Chain of TGFBR2 (P37173 whole entry): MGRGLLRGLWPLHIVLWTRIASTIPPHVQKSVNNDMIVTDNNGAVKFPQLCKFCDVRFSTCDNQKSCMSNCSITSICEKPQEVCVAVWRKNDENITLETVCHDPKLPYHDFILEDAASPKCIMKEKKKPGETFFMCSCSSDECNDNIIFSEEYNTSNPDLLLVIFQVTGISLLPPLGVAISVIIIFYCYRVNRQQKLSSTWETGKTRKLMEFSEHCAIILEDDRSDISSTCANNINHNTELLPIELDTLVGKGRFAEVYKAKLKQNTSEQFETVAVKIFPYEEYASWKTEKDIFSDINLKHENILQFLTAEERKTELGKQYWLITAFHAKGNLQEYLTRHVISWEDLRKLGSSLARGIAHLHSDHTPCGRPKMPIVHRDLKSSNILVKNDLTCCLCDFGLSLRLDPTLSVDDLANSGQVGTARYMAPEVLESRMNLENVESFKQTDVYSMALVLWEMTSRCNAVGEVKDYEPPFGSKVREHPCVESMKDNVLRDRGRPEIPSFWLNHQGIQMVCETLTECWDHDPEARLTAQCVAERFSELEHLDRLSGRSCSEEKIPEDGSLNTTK
Chain of FGR (P09769 whole entry): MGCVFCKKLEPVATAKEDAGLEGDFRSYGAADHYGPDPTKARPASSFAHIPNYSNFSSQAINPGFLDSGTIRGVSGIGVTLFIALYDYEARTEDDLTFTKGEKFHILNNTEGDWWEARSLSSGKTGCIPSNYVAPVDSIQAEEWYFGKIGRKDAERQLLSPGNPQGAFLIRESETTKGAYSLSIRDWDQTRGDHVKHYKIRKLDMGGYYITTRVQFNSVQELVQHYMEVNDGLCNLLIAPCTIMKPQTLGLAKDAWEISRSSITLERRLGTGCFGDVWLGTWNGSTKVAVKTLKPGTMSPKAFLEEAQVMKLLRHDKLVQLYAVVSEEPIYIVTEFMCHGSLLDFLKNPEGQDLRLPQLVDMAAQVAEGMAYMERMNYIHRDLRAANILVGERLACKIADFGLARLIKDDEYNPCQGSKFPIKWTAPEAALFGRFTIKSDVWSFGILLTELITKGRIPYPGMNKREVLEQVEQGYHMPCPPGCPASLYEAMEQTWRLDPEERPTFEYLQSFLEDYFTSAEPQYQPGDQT
Chain of CDK19 (Q9BWU1 whole entry): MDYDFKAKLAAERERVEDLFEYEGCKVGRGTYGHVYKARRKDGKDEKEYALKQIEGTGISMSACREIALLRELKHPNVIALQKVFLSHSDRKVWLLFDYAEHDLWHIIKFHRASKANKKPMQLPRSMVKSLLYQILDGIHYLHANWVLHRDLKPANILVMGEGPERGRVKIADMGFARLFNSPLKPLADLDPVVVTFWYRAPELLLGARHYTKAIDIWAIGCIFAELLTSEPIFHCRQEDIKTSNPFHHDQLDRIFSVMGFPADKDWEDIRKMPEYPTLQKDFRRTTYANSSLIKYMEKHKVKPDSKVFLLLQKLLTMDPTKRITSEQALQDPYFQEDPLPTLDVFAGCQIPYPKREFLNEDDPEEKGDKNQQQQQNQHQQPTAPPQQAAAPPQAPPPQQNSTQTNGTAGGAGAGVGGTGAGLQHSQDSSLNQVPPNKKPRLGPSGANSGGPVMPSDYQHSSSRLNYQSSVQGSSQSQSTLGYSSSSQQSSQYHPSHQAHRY

CNc1ncc2cc(-c3ccc(-c4cccc(C)n4)cc3Cl)c(=O)n(C[C@H]3OC[C@H](N)CO3)c2n1 [compound 6, G-5555]
Percent Control (VRK2): 100% | Percent Control (STK36): 2.9% | Percent Control (CSNK1G2): 83% | Percent Control (SRMS): 100% | Percent Control (PIM3): 100% | Percent Control (CDK3): 100% | Percent Control (RPS6KA5): 100% | Percent Control (ACVR2B): 100% | Percent Control (IRAK3): 92% | Percent Control (SGK3): 60% | Percent Control (PRP4): 95% | Percent Control (TLK2): 100% | Percent Control (MTOR): 83% | Percent Control (TGFBR2): 100% | Percent Control (PRKG2): 94% | Percent Control (PAK3): 100% | Percent Control (ABL1(Y253F)): 100% | Percent Control (SRPK3): 100% | Percent Control (SBK1): 100% | Percent Control (PIP5K1C): 100% | Percent Control (CDK19): 100% | Percent Control (GCN2(Kin.Dom.2,S808G)): 63% | Percent Control (SgK110): 71% | Percent Control (NEK7): 100% | Percent Control (FGR): 100% | Percent Control (ABL1(M351T)): 100% | Percent Control (ADCK4): 100% | Percent Control (PKN1): 92% | Percent Control (PLK1): 94% | Percent Control (SIK1): 0.6%
